This note sets out measurements from ChEMBL document CHEMBL3259536, “New 2H-chromene-3-carboxamide derivatives: design, synthesis and use as inhibitors of hMAO” (Eur J Med Chem, 2014).

The target in series [1] is T1, Amine oxidase [flavin-containing] A (Homo sapiens, UniProt P21397).
T1 sequence (P21397 whole entry): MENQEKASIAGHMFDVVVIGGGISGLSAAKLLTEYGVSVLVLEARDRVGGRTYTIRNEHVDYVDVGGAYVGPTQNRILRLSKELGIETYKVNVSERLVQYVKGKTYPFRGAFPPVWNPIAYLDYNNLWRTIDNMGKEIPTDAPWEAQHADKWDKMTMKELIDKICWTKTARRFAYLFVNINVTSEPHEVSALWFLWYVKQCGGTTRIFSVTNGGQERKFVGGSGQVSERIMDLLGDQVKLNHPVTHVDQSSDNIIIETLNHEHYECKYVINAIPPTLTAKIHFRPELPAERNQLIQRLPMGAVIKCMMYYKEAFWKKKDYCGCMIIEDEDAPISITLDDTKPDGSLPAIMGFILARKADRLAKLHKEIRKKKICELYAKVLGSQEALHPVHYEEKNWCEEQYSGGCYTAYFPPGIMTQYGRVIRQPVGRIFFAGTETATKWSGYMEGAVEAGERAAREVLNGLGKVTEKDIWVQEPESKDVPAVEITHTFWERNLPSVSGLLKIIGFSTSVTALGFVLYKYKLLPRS
The series can be described thus: Inhibition of human recombinant MAO-A expressed in baculovirus infected insect cell microsomes assessed as p-tyramine conversion to resorufin and H2O2 at 60 uM after 15 mins by fluorimetric assay. The note with it: 0.25 h.

For series [2], the target named is T2, Amine oxidase [flavin-containing] B (Homo sapiens, UniProt P27338).
T2 sequence (P27338 whole entry): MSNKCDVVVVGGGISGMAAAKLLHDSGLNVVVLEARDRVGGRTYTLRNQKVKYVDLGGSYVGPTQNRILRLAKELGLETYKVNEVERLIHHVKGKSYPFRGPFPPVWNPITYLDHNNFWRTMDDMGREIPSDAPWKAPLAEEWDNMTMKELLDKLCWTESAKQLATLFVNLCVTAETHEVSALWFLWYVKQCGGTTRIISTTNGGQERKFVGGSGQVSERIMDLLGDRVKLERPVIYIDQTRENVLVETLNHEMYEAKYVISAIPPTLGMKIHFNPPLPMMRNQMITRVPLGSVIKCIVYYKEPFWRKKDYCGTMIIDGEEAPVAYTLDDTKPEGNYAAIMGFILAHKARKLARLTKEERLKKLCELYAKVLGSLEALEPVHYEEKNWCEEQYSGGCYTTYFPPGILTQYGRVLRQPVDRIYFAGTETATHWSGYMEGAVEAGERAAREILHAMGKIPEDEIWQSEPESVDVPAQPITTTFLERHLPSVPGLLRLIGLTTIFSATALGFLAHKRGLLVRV
The series can be described thus: Inhibition of human recombinant MAO-B expressed in baculovirus infected insect cell microsomes assessed as p-tyramine conversion to resorufin and H2O2 after 15 mins by fluorimetric assay.

The species named for a further series is Homo sapiens. The series can be described thus: Selectivity index, ratio of IC50 for human recombinant MAO-A to IC50 for human recombinant MAO-B.
Series [3] deals with T1, Amine oxidase [flavin-containing] A. The series can be described thus: Inhibition of human recombinant MAO-A expressed in baculovirus infected insect cell microsomes assessed as p-tyramine conversion to resorufin and H2O2 after 15 mins by fluorimetric assay.
Series [4] addresses T2, Amine oxidase [flavin-containing] B. The experiment in a line: Inhibition of human recombinant MAO-B expressed in baculovirus infected insect cell microsomes assessed as p-tyramine conversion to resorufin and H2O2 at 60 uM after 15 mins by fluorimetric assay. The note with it: 0.25 h.

For `Cc1cccc(NC(=O)c2cc3ccccc3oc2=O)c1`, the “inhibition (INH)” value in series [1] is reported as “Not Active”.
Consider `Cc1cccc(NC(=O)c2cc3cc(Br)cc(Br)c3oc2=O)c1`, for which the “inhibition (INH)” value in series [1] was “Not Active”. The 50% inhibitory concentration (IC50) (usually the concentration at which inhibition is half-maximal) in series [2] came to 21.5 µM. Moreover, the Ratio IC50 in the series listed under Homo sapiens is 2.78.
As to `O=C(NCCCN1CCOCC1)c1cc2ccccc2oc1=O`, the IC50 in series [3] stood at 42.3 µM; in series [2], 13.5 µM. In addition, the Ratio IC50 in the series filed under Homo sapiens came to 3.1.
`Cc1ccccc1NC(=O)c1cc2cc([N+](=O)[O-])ccc2oc1=O`: in series [1], the “inhibition (INH)” value is “Not Active”. Also, in series [2], the IC50 was 29.4 µM. Moreover, in the series listed under Homo sapiens, the Ratio IC50 stood at 2.
Taken in the same sequence, the figures for `O=C(Nc1cccc(C(F)(F)F)c1)c1cc2cc([N+](=O)[O-])ccc2oc1=O` were “Not Active”, 22.8 µM and 2.6.
On to `O=C(Nc1cccc(C(F)(F)F)c1)c1cc2ccccc2oc1=O`, for which, in series [1], the “inhibition (INH)” value is listed as “Not Active”.
Turning to `Cc1cccc(NC(=O)c2cc3cc([N+](=O)[O-])ccc3oc2=O)c1`, the “inhibition (INH)” value in series [1] was “Not Active”. For the same compound, in series [2], the 50% inhibitory concentration (IC50) amounted to 39.1 µM. The Ratio IC50 in the series listed under Homo sapiens was found to be 1.5.
Turning to `O=C(Nc1cccc(C(F)(F)F)c1)c1cc2cc(Br)cc(Br)c2oc1=O`, the “inhibition (INH)” value in series [1] is listed as “Not Active”. Besides, in series [2], the IC50 turned out to be 7.09 µM. The Ratio IC50 in the series listed under Homo sapiens turned out to be 8.46.
Regarding `COc1ccccc1NC(=O)c1cc2cc(Br)cc(Br)c2oc1=O`, the “inhibition (INH)” value in series [1] is listed as “Not Active”. For the same compound, in series [2], the IC50 was found to be 20.2 µM. Moreover, in the series listed under Homo sapiens, the Ratio IC50 was found to be 2.97.
`COc1ccccc1NC(=O)c1cc2cc([N+](=O)[O-])ccc2oc1=O`: the “inhibition (INH)” value in series [1] is “Not Active”. Moreover, in series [2], the IC50 is 50 µM. Further, in the series listed under Homo sapiens, the Ratio IC50 was found to be 1.2.
For the compound `Cc1ccccc1NC(=O)c1cc2ccccc2oc1=O`, the “inhibition (INH)” value in series [1] is listed as “Not Active”. In addition, in series [2], the IC50 came to 2.96 µM. Also, the Ratio IC50 in the series listed under Homo sapiens was found to be 20.3.
Turning to `O=C(c1cc2ccccc2oc1=O)N(c1ccccc1)c1ccccc1`, the “inhibition (INH)” value in series [1] and in series [4] was “Not Active” in each case.
With `CC(C)(C)NC(=O)c1cc2cc(Br)cc(Br)c2oc1=O`, the results for the IC50 in series [3] and in series [2] were 31.5 µM and 14.7 µM, respectively. Also, in the series filed under Homo sapiens, the Ratio IC50 stood at 2.1.
Taken in the same sequence, the figures for `CCC(C)NC(=O)c1cc2cc([N+](=O)[O-])ccc2oc1=O` (centres undefined) were 37.5 µM, 19.1 µM and 1.97.
As to `COc1ccccc1NC(=O)c1cc2ccccc2oc1=O`, in series [1], the “inhibition (INH)” value is recorded as “Not Active”. Further, the 50% inhibitory concentration (IC50) in series [2] is 35.4 µM. The Ratio IC50 in the series listed under Homo sapiens amounted to 1.7.
With `O=C(c1cc2cc(Br)cc(Br)c2oc1=O)N(c1ccccc1)c1ccccc1`, the “inhibition (INH)” value in series [1] and in series [4] was “Not Active” in each case.
With `O=C(NCCCN1CCOCC1)c1cc2cc([N+](=O)[O-])ccc2oc1=O`, the “inhibition (INH)” value in series [1] was “Not Active”. The IC50 in series [2] amounted to 46.1 µM. The Ratio IC50 in the series filed under Homo sapiens was determined as 1.3.
Taken in the same sequence, the figures for `Cc1ccccc1NC(=O)c1cc2cc(Br)cc(Br)c2oc1=O` were “Not Active”, 4.68 µM and 12.8.
Consider `CCCCCCN(CCCCCC)C(=O)c1cc2ccccc2oc1=O`, for which the IC50 in series [3] was determined as 14.2 µM; in series [2], 8.05 µM. In the series listed under Homo sapiens, the Ratio IC50 came to 1.8.
Taken in the same sequence, the figures for `O=C(NCCCN1CCOCC1)c1cc2cc(Br)cc(Br)c2oc1=O` were 32.4 µM, 10.6 µM and 3.1.
